Tested on: 565232-114-T-J1-PDC complex spheroid viability
Assay: Anticancer human tumor 565232-114-T-J1-PDC patient-derived bladder carcinoma cell line growth inhibition [CLK]
Details: for IC50: curve of first compound; for viability, T/C: stronger effect = lower value
Procedure, shortened: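 Patient-derived tumor cells grown as complex spheroids with HUVEC endothelial cells and mesenchymal stem cells, treated with drug combinations. Concentrations descend in half-log steps from near clinical Cmax, or from 10 microM if Cmax unknown.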

[1] = second compound 0.0316 µM, first compound 0.0316 µM
[2] = second compound 0.0316 µM, first compound 0.1 µM
[3] = second compound 0.0316 µM, first compound 0.316 µM
[4] = second compound 0.0316 µM, first compound 1 µM
[5] = second compound 0.0316 µM, first compound 3.16 µM
[6] = second compound 0.0316 µM, first compound 10 µM
[7] = second compound 0.1 µM, first compound 0.0316 µM
[8] = second compound 0.1 µM, first compound 0.1 µM
[9] = second compound 0.1 µM, first compound 0.316 µM
[10] = second compound 0.1 µM, first compound 1 µM
[11] = second compound 0.1 µM, first compound 3.16 µM
[12] = second compound 0.1 µM, first compound 10 µM
[13] = second compound 0.316 µM, first compound 0.0316 µM
[14] = second compound 0.316 µM, first compound 0.1 µM
[15] = second compound 0.316 µM, first compound 0.316 µM
[16] = second compound 0.316 µM, first compound 1 µM
[17] = second compound 0.316 µM, first compound 3.16 µM
[18] = second compound 0.316 µM, first compound 10 µM
[19] = second compound 1 µM, first compound 0.0316 µM
[20] = second compound 1 µM, first compound 0.1 µM
[21] = second compound 1 µM, first compound 0.316 µM
[22] = second compound 1 µM, first compound 1 µM
[23] = second compound 1 µM, first compound 3.16 µM
[24] = second compound 1 µM, first compound 10 µM
[25] = second compound 3.16 µM, first compound 0.0316 µM
[26] = second compound 3.16 µM, first compound 0.1 µM
[27] = second compound 3.16 µM, first compound 0.316 µM
[28] = second compound 3.16 µM, first compound 1 µM
[29] = second compound 3.16 µM, first compound 3.16 µM
[30] = second compound 3.16 µM, first compound 10 µM
[31] = second compound 10 µM, first compound 0.0316 µM
[32] = second compound 10 µM, first compound 0.1 µM
[33] = second compound 10 µM, first compound 0.316 µM
[34] = second compound 10 µM, first compound 1 µM
[35] = second compound 10 µM, first compound 3.16 µM
[36] = second compound 10 µM, first compound 10 µM
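Note: spheroids exposed to compounds for 7 days before readout.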
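Throughout, for viability, T/C: 100% = DMSO vehicle wells with luminescence normalized to vehicle control.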

Structure (SMILES): Nc1ccccc1NC(=O)c1ccc(CNC(=O)OCc2cccnc2)cc1 + CN1CCN(c2cc(C(=O)Nc3cc4cc(-c5cnn(C)c5)ccc4cn3)ccn2)CC1
- IC50 (second compound 0.0316 µM): 5260 nM
- IC50 (second compound 0.1 µM): 2660 nM
- IC50 (second compound 0.316 µM): < 31.6 nM
- IC50 (second compound 1 µM): < 31.6 nM
- IC50 (second compound 3.16 µM): < 31.6 nM
- IC50 (second compound 10 µM): < 31.6 nM
- viability, T/C [1]: 110%
- viability, T/C [2]: 108%
- viability, T/C [3]: 111%
- viability, T/C [4]: 100%
- viability, T/C [5]: 89.8%
- viability, T/C [6]: 1.38%
- viability, T/C [7]: 107%
- viability, T/C [8]: 93.5%
- viability, T/C [9]: 92.5%
- viability, T/C [10]: 89.9%
- viability, T/C [11]: 42.9%
- viability, T/C [12]: 0.29%
- viability, T/C [13]: 16.2%
- viability, T/C [14]: 23%
- viability, T/C [15]: 11.5%
- viability, T/C [16]: 9.54%
- viability, T/C [17]: 2.07%
- viability, T/C [18]: 0.07%
- viability, T/C [19]: 0.15%
- viability, T/C [20]: 1.24%
- viability, T/C [21]: 3.47%
- viability, T/C [22]: 0.16%
- viability, T/C [23]: 1.45%
- viability, T/C [24]: 0.11%
- viability, T/C [25]: 0.3%
- viability, T/C [26]: 3.93%
- viability, T/C [27]: 3.86%
- viability, T/C [28]: 0.23%
- viability, T/C [29]: 0.19%
- viability, T/C [30]: 0.18%
- viability, T/C [31]: 0.11%
- viability, T/C [32]: 0.5%
- viability, T/C [33]: 2.65%
- viability, T/C [34]: 0.16%
- viability, T/C [35]: 0.94%
- viability, T/C [36]: 0.18%

Structure (SMILES): C=CC(=O)N1CCN(c2nc(=O)n(-c3c(C)ccnc3C(C)C)c3nc(-c4c(O)cccc4F)c(F)cc23)C(C)C1 (centres undefined) + CNC(=O)c1ccc(Nc2nc(OC3CCCC3)c3c(-c4ccc5nc(C)oc5c4)c[nH]c3n2)c(OC)c1
- IC50 (second compound 0.0316 µM): > 10000 nM
- IC50 (second compound 0.1 µM): > 10000 nM
- IC50 (second compound 0.316 µM): < 31.6 nM
- IC50 (second compound 1 µM): < 31.6 nM
- IC50 (second compound 3.16 µM): < 31.6 nM
- IC50 (second compound 10 µM): < 31.6 nM
- viability, T/C [1]: 102%
- viability, T/C [2]: 83.5%
- viability, T/C [3]: 98.2%
- viability, T/C [4]: 94.4%
- viability, T/C [5]: 105%
- viability, T/C [6]: 118%
- viability, T/C [7]: 64.9%
- viability, T/C [8]: 55.1%
- viability, T/C [9]: 57.2%
- viability, T/C [10]: 58.2%
- viability, T/C [11]: 69.6%
- viability, T/C [12]: 58.8%
- viability, T/C [13]: 35.3%
- viability, T/C [14]: 37.5%
- viability, T/C [15]: 34.3%
- viability, T/C [16]: 32.8%
- viability, T/C [17]: 42.5%
- viability, T/C [18]: 37.8%
- viability, T/C [19]: 21.6%
- viability, T/C [20]: 24.7%
- viability, T/C [21]: 25.1%
- viability, T/C [22]: 26.1%
- viability, T/C [23]: 29.1%
- viability, T/C [24]: 27.5%
- viability, T/C [25]: 21.4%
- viability, T/C [26]: 19.8%
- viability, T/C [27]: 21.8%
- viability, T/C [28]: 23.6%
- viability, T/C [29]: 28.3%
- viability, T/C [30]: 23.2%
- viability, T/C [31]: 22.1%
- viability, T/C [32]: 14.6%
- viability, T/C [33]: 18.9%
- viability, T/C [34]: 26%
- viability, T/C [35]: 28.1%
- viability, T/C [36]: 25%
